Experimental data: publication PMC6573034 (Nature Communications, 2019)
“Also recorded” adds a separate entry of the source. Where two headings read alike, the source gives them in different places.

How the values were obtained:
SfMCT [1] = target: T1, SfMCT (Syntrophobacter fumaroxidans, UniProt A0LNN5); assay type: cell-based; settings: for Relative uptake of [14C]L-lactate (in %): WT SfMCT, competitor 1 mM final concentration, normalized to control without competitor
T1 construct: expressed in transfected cells; host or cells: E. coli JA202 (MC4100 glcA::cat lldP::kan), plasmid pEXT20-SfMCT-3C-10His
T1 sequence (A0LNN5 1-412): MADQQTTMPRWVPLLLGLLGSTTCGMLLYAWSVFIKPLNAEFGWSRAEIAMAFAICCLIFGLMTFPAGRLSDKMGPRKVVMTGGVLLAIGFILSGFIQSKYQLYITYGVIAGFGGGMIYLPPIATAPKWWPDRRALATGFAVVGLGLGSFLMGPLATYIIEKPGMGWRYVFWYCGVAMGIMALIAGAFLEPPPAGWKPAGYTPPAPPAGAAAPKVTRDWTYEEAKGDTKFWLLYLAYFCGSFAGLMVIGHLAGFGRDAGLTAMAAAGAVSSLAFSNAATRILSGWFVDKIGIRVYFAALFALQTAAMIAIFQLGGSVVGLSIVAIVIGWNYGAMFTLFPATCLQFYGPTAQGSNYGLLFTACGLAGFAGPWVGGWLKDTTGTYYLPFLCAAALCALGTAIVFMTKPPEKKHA
Experimental: The cultures were grown at 37 °C and 180 r.p.m. in an incubator shaker (Multitron, Infors HT). Protein expression was induced at OD600 ~0.5 by addition of IPTG to a final concentration of 0.25 mM. After 4 h, bacteria were pelleted (5,200 × g, 10 min, room temperature) and resuspended in uptake buffer (20 mM Bis-Tris propane-HCl (pH 6.7), 250 mM KCl) to a bacteria density of OD600 12. […] Furthermore, [3-3 H] propionic acid sodium salt ([^3H]propionate, American Radiolabeled Chemicals, specific activity 30 Ci/mmol), n-[2,3-3 H] butyric acid sodium salt ([^3H]butyrate, American Radiolabeled Chemicals, specific activity 120 Ci/mmol), and [1–14 C] pyruvic acid sodium salt ([^14C]pyruvate, specific activity 0.055 Ci/mmol American Radiolabeled Chemicals) were also used for transport experiments. […] Uptake experiments were performed in 2 ml reaction tubes (Eppendorf) at 30 °C under agitation (1,000 r.p.m., Thermomixer compact, Eppendorf). […] Bacteria were immediately pelleted by centrifugation (21,000 × g, 4 min, room temperature) and washed two times with 900 μl stop buffer. Finally, bacteria were lyzed in 50 μl 5% (w/v) sodium dodecylsulfate and transferred into a white 96-well plate (Optiplate, PerkinElmer). 150 µl of scintillation cocktail (MicroScint 40, PerkinElmer) were added before measuring each reaction for 2 min with a scintillation counter (TopCount NXT, PerkinElmer). For data analysis, the signal of the empty vector was subtracted from the transporter signal. […] Cpm values of each experiment were normalized with respect to the determined upper plateau value, i.e., the fitted upper plateau value corresponds to 100%. The arithmetic average of three independent experiments was calculated. Three independent and normalized pH-dependence curves were then averaged. For data analysis Prism6 (GraphPad Software) was used. […] Equal amounts of bacteria expressing SfMCT variants were loaded on 14% SDS/polyacrylamide gels. His-tagged transporters were detected using an anti-His5 (Qiagen, catalogue number 34660, primary antibody) at a dilution of 1:3,000 and a goat anti-mouse IgG (H + L) HRP conjugate antibody (Biorad, catalogue number 172-1011, secondary antibody) at a dilution of 1:2,500.

SfMCT-F335A = target: T2, SfMCT-F335A (Syntrophobacter fumaroxidans, UniProt A0LNN5, F335A); test: [14C]L-lactate transport competition assay, SfMCT-F335A; assay type: cell-based; settings: competition by 1 mM ACAC
T2 construct: expressed in transfected cells; host or cells: E. coli JA202, pEXT20-SfMCT-3C-10His mutant plasmid
T2 sequence (A0LNN5 whole entry F335A): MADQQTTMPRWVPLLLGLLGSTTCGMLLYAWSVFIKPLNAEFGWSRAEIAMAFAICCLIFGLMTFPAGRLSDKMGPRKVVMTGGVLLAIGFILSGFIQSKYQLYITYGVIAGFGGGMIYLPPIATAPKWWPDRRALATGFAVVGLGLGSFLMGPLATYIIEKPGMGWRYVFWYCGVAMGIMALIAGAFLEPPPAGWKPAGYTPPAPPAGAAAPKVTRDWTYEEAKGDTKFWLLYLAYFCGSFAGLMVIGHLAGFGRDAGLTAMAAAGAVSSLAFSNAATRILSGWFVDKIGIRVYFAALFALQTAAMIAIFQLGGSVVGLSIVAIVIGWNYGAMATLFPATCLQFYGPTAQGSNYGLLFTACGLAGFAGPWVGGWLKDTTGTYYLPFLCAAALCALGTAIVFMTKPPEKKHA
Experimental: (§1) The cultures were grown at 37 °C and 180 r.p.m. in an incubator shaker (Multitron, Infors HT). Protein expression was induced at OD600 ~0.5 by addition of IPTG to a final concentration of 0.25 mM. After 4 h, bacteria were pelleted (5,200 × g, 10 min, room temperature) and resuspended in uptake buffer (20 mM Bis-Tris propane-HCl (pH 6.7), 250 mM KCl) to a bacteria density of OD600 12. […] Furthermore, [3-3 H] propionic acid sodium salt ([^3H]propionate, American Radiolabeled Chemicals, specific activity 30 Ci/mmol), n-[2,3-3 H] butyric acid sodium salt ([^3H]butyrate, American Radiolabeled Chemicals, specific activity 120 Ci/mmol), and [1–14 C] pyruvic acid sodium salt ([^14C]pyruvate, specific activity 0.055 Ci/mmol American Radiolabeled Chemicals) were also used for transport experiments. […] Cpm values of each experiment were normalized with respect to the determined upper plateau value, i.e., the fitted upper plateau value corresponds to 100%. The arithmetic average of three independent experiments was calculated. […] His-tagged transporters were detected using an anti-His5 (Qiagen, catalogue number 34660, primary antibody) at a dilution of 1:3,000 and a goat anti-mouse IgG (H + L) HRP conjugate antibody (Biorad, catalogue number 172-1011, secondary antibody) at a dilution of 1:2,500.

MCT1 = target: MCT1; set-up: method as in Ovens et al., 2010, Biochem. J. 425:523-30; settings: reported value, ref Ovens et al., 2010, Biochem. J. 425:523-30; cited from earlier work
Y331F SfMCT = target: T3, Y331F SfMCT (Syntrophobacter fumaroxidans, UniProt A0LNN5, Y331F); test: [14C]L-lactate transport competition assay, Y331F SfMCT; assay type: cell-based; settings: competition of [14C]L-lactate uptake
T3 construct: expressed in transfected cells; host or cells: E. coli JA202, pEXT20-SfMCT-3C-10His mutant plasmid
T3 sequence (A0LNN5 whole entry Y331F): as the sequence (A0LNN5 whole entry F335A) above, with Y331F, A335F counted along it
Experimental: as §1

SfMCT [2] = target: T1, SfMCT; test: Micro pH electrode-based transport assay, SfMCT-expressing E. coli JA202; assay type: cell-based; settings: 10 mM compound (pH 6.5) added to bacterial suspension pH 6.7
Experimental: A measuring set up as previously reported[18] was used for micro pH electrode-based transport measurements. SfMCT was expressed in E. coli JA202 (MC4100 glcA::cat lldP::kan)[15] as described for uptake experiments. After expression, bacteria were pelleted (5,200 × g, 10 min, room temperature), washed twice in assay solution (250 mM KCl, 1 mM MgSO4, 2 mM CaCl2; 5,200 × g, 10 min, room temperature) and finally resuspended in assay solution to a bacterial density of OD600 15. Compounds that were assayed for proton-coupled transport were dissolved in assay solution and the pH was adjusted to 6.5. 800 µl of bacteria suspension were transferred into a 2 ml reaction tube (Eppendorf) and the pH value of the bacterial suspension (extracellular medium) was measured using a micro pH electrode with integrated temperature sensor (InLab Micro Pro, Mettler Toledo) under constant stirring. The pH of the bacterial suspension was adjusted to pH 6.7 using potassium hydroxide and hydrochloric acid. The SevenCompact pH-meter (Mettler Toledo), together with LabX direct pH 2.3 software (Mettler Toledo), were used for automatic recording in 15 s intervals. Measurements were initiated by adding 10 mM of the corresponding compound to the bacterial suspension. All experiments were performed at 24 °C.

[3] = substrate: C[C@H](O)C(=O)O; test: cells, lysate or membranes; assay type: cell-based, Syntrophobacter fumaroxidans; settings: other: SfMCT-mediated [14C]L-lactate uptake; average of three independent saturation experiments

CC(=O)CC(=O)O [ACAC, acetoacetate]
Relative uptake of [14C]L-lactate (in %) (SfMCT [1]): 86.3974%
Relative uptake of [14C]L-lactate (in %) (SfMCT [1]; listed as acetoacetate): 86%
reduction of [14C]L-lactate uptake (SfMCT [1]; competitor 1 mM): 5–14%
Relative uptake of [14C]L-lactate (in %) (SfMCT-F335A): 43.19%
Relative uptake of [14C]L-lactate (in %) (SfMCT-F335A; listed as acetoacetate): 43%

Cc1n[nH]c(C)c1Cc1sc2c(c1C(=O)N1C[C@H](O)CO1)c(=O)n(C)c(=O)n2CC(C)C [AR-C155858, reference compound]
[14C]L-lactate uptake (SfMCT [1]; 100 µM AR-C155858, control: 100%): 103%
Ki (MCT1): ~0.002 µM

O=C(O)c1ccccc1S [TSA, thiosalicylate]
Ki (SfMCT [1]; wild-type (WT) SfMCT, competition of [14C]L-lactate uptake): 120 µM
Ki (Y331F SfMCT): 1380 µM
proton-coupled transport, change of extracellular pH (in words) (SfMCT [2]): not a substrate; also recorded: not transported

B1: SfMCT (Syntrophobacter fumaroxidans MPOB) (protein)
chain: T1 sequence (A0LNN5 1-412)
notes: expressed in transfected cells; host or cells: E. coli JA202 (MC4100 glcA::cat lldP::kan), plasmid pEXT20-SfMCT-3C-10His
Km [3]: 233 ± 22 µM
